Laboratory results as given in patent US10478485B2, “Methods and compositions to prevent or treat bacterial infections” (priority 2015, dated 2019).
≈ marks a conversion by molar mass, not a printed value.

Key:
Acinetobacter baumannii = experiment: SIgA breakdown / secretory component liberation by Acinetobacter baumannii (Western blot); type: cell-based; settings: for inhibition of SIgA reduction and SC liberation: 2 hours after incubation
Experimental: Acinetobacter baumannii was incubated with 50 μg/mL SIgA to examine breakdown of the immunoglobulin. Breakdown of SIgA by A. baumannii was observed by liberation of secretory component from dimeric IgA. Goat anti-human secretory component (free and bound) antibody was used to monitor this occurrence though Western blot. A mixture of A. baumannii strain Ci79 was prepared in three concentrations −10^7, 10^6, and 10^5 CFU/mL—to determine whether SIgA breakdown was dose dependent with respect to bacterial concentration FIG. 1A. […] Next, two competitive inhibitors of reductase enzymes targeting the thioredoxin fold (-C-X-X-C-) motif typically found in thiol-reductase enzymes (thioredoxin, glutathione, thioredoxin reductase, etc) were identified. The first, dithionitrobenzoic acid (Ellman's reagent) is often used as a colorimetric substrate to monitor thioredoxin activity as it produces a bright yellow color upon cleavage of the disulfide bond within the molecule. The second is PX-12. […] (Error bars represent ±SEM in all graphs; statistical differences determined by ANOVA with Dunnett correction; * significance p<0.01; ** p<0.001).

A. baumannii strain Ci79 = experiment: Bacterial adherence to mouse intestinal sections; type: cell-based, Acinetobacter baumannii
Experimental: Intestinal sections were cut down one side to expose the inner lumen of the intestine and individually placed in suspensions of A. baumannii strain Ci79 (10^7 CFU/mL). The sections were incubated in this mixture for 30 minutes, washed twice in 250 volumes of sterile PBS and soaked in 500 volumes of PBS (volume of section ˜50-100 μL) for five minutes. The remaining bound bacteria were enumerated through homogenization of each section into single cell suspensions in 10 mL sterile PBS followed by dilution plating.

[1] = tested on: multi-drug resistant (MDR) Acinetobacter baumannii clinical isolates; experiment: Minimum inhibitory concentration (MIC) determination; type: cell-based
Experimental: PX-12 concentrations used in these experiments approximated the concentration reported “well tolerated” by mice (˜500 μg/mouse; 500 μg/mL for this experiment). […] Furthermore, this concentration was also bactericidal leading us to believe it may potentially be useful as a new antimicrobial compound for treating MDR Acinetobacter baumannii. (Bacterial concentrations used in presented studies ˜100× higher than recommended by CLSI standards)

[2] = cited from earlier work

## O=C(O)c1cc(SSc2ccc([N+](=O)[O-])c(C(=O)O)c2)ccc1[N+](=O)[O-] [Ellman's reagent, dithionitrobenzoic acid]
Acinetobacter baumannii
  SIgA breakdown by Acinetobacter baumannii after addition of inhibitor: significantly reduced
Acinetobacter baumannii; 1 mM
  inhibition of SIgA reduction and SC liberation: completely ablated
Acinetobacter baumannii; 24 hours
  inhibition of SIgA reduction at 24 hours: inhibition was still evident

## CCC(C)SSc1ncc[nH]1 (stereo not shown) [PX-12, 1-methylpropyl 2-imidazolyl disulfide]
A. baumannii strain Ci79; 18 μg/mL, sections from WT C57BL/6 mice
  bacterial adherence to intestinal sections: significantly inhibits
A. baumannii strain Ci79; WT intestinal sections as 100% control, Ci79 10^7 CFU/mL, 30 minutes
  reduction of bacterial attachment: ~40%
[1]; 500 μg/mL
  bacterial pellet size: visible decrease in bacterial pellet size
[1]; Acinetobacter baumannii
  MIC: 31.2 µg/mL (≈ 166 µM)
[1]; at 31.25 μg/mL
  bactericidal effect: bactericidal
[1]; repeat MIC to CLSI standards, ~5×10^5 CFU/mL, 64 to 0.5 μg/mL
  bactericidal activity (low MIC combined with low MBC): bactericidal activity
[2]
  concentration reported well tolerated by mice: ~500 μg/mouse
Acinetobacter baumannii
  time after which inhibition is overcome by the bacteria: about 12 hours
Acinetobacter baumannii; 15 μg/mL
  inhibition of SIgA reduction and SC liberation: completely ablated
Acinetobacter baumannii; 18 μg/mL, up to 2 hours following treatment
  SIgA breakdown by Acinetobacter baumannii: significantly reduced
